Like-named read-outs stand apart in the source and are kept apart here.
Columns and labels:
Format in all cases: cell-based
[1] = tested on: BEL-7402 cell; assay: Sulforhodamine B (SRB) growth inhibition of human liver cancer cell strain BEL-7402; settings: for inhibition at 10 µM: Homo sapiens, read-out: BEL-7402/ Inhibition (%)
Description: 1. human liver cancer cell strains BEL-7402 model discrimination
Tested methods: Sulforhodamine B (SRB)
According to growth rate of tumor cells, the adherent cells in logarithmic growth phase was implanted into a 96-well cell culture plate by 200 μL per well. Adhering for 24 h before dosing, each concentration was set with 3 holes. The corresponding concentration of saline as for control group and withering holes without cells. The tumor cells were cultured for 72 h under 5% CO2 at 37° C.
The culture plate was takene out, 50 uL of trichloro acetic acid TCA fixed cells which were diluted to 50% (m/v) were added to each well. The plate was kept for 1 h at 4° C. If suspension cells are cultured, 50 uL cold TCA (80%) was added to each well. Final concentration of TCA is 16%, standed for 5 min, kept in a refrigerator for 1 h at 4° C.
Stationary liquid was sucked out, washed by 5 times with distilled water, dried in the air.
After drying in the air, 100 μL of SRB solution was added in each well, kept for 10-30 min at the room temperature.
The supernatant was sucked out, washed by 5 times with acetic acid (1%), dried in the air.
150 μL Tris solution was added in each well, vibrated for 5 min on the tablet oscillator.
OD values were measured with ELISA at 515 nm, zeroed with blank control.
Growth inhibition ratio of tumor cells was calculated according to the following formula: Inhibition=[(OD515control hole−OD515dosing hole)/OD515control hole]×100%.
According to inhibition ratio of different concentration, IC50 was determined with Logit method. Above experiment was repeated 2-3 times to give average IC50 values as for final index.
Model principle: SRB is a kind of protein binding dye which can be binded with basic amino acid in biological macromolecules. OD values in specific wavelength range have linear relationship with cell number. According to OD values of binding substance, action effect of sample on tumor cell is defected.

[2] = tested on: PLC/PRF/5 liver cancer cell strains; assay: Tetrazolium salt reduction method (MTT) on human liver cancer cell strain PLC/PRF/5
Description: 2. human liver cancer cell strains PLC/PRF/5 model discrimination
(§1) Tested methods: Tetrazolium salt reduction method (MTT)
(1) Inoculating cells: A uniform cell suspension was prepared with culture solution containing fetal calf serum (10%). The suspension was implanted into a 96-well cell culture disc by 1000-10000 cells/200 μL per well.
(§2) (2) Culturing cells: The cells were cultured for 3-5 days according to known methods in the art (culturing time depending on experiment objective and requirement).
(§3) (3) Colour response: The cells were cultured for 3-5 days, 20 μl of MTT solution (5 mg/mL, PBS <pH=7.4>) was added in each well, incubated for 4 h. Culture was terminated and the culture suspension was carefully sucked out. As for suspension cells, they need be centrifuged before suspension solution in wells was sucked out. 150 μL of DMSO was added in each well, vibrated for 10 min. The crystal was fully dissolved.
(§4) (4) Colorimetry: Light absorbance values in each well were measured by ELISA at 490 nm and the results were recorded. The cell growth curve was drawn with time as the abscissa and absorbance values as vertical coordinates.
Model principle: Dehydrogenase related to NADP exists in mitochondria of living cell. Yellow MIT is reduced to insoluble blue-purple Formanzan. Dehydrogenase is disappeared in dead cell and MIT can not be reduced. According to reduction extent, action effect of sample on tumor cell is defected.

[3] = tested on: MHCC97L liver cancer cell strains; assay: Tetrazolium salt reduction method (MTT) on human liver cancer cell strain MHCC97L
Description: 3. human liver cancer cell strains MHCC97L model discrimination
as §1
(1) Inoculating cells: Inoculating cells: A uniform cell suspension was prepared with culture solution containing fetal calf serum (10%). The suspension was implanted into a 96-well cell culture disc by 1000-10000 cells/200 μL per well.
as §2, §3, §4
Model principle: Dehydrogenase related to NADP exists in mitochondria of living cell. Yellow MTT is reduced to insoluble blue-purple Formanzan. Dehydrogenase is disappeared in dead cell and MTT can not be reduced. According to reduction extent, action effect of sample on tumor cell is defected.

[4] = 1.00 × 10^−5 mol/L, SRB, cells cultured 72 h
[5] = MTT, cells cultured 3-5 days, read-out: PLC/PRF/5 IC50
[6] = MTT, cells cultured 3-5 days, read-out: MHCC97L IC50
[7] = Bel-7402, 1.00 × 10^−5 mol/L, SRB, cells cultured 72 h
[8] = Homo sapiens, PLC-PRF-5, read-out: PLC/PRF/5 IC50 (μM)
[9] = Homo sapiens, MHCC97L, read-out: MHCC97L IC50 (μM)

| SMILES | IC50 [2, 5] [µM] | IC50 [3, 6] [µM] | BEL-7402/ Inhibition (%) [1, 4] [%] | inhibition at 10 µM [1, 7] [%] | inhibition at 10 µM ([1]; Bel-7402, 72 h) [%] | IC50 [2, 8] [µM] | IC50 [3, 9] [µM] |
| --- | --- | --- | --- | --- | --- | --- | --- |
| COc1ccc2cc1Oc1ccc(cc1)C[C@H]1c3cc(c(OC)cc3CCN1C)Oc1c(OC)c(OC)cc3c1[C@H](C2)N(C)CC3 [Tetrandrine, 6,6′,7,12-tetramethoxy-2,2′-dimethyl berbamine, reference compound] | – | – | – | 53.9 ± 3.72 | – | – | – |
| C=CC(=O)Nc1cc(OC)c2cc1C[C@H]1c3c(cc(OC)c(OC)c3Oc3cc4c(cc3OC)CCN(C)[C@H]4Cc3ccc(cc3)O2)CCN1C [Compound H-10] | – | – | – | – | 87.74 ± 0.63 | 10.7 | 10.4 |
| COc1ccc2cc1Oc1ccc(cc1)C[C@H]1c3cc(c(OC)cc3CCN1C)Oc1c(O)c(OC)cc3c1[C@H](C2)N(C)CC3 [Tetrandrine B, reference compound] | – | – | – | – | 23.9 ± 3.65 | 16.9 | 12.8 |
| COc1cccc2c1C(=O)c1c(O)c3c(c(O)c1C2=O)C[C@@](O)(C(=O)CO)C[C@@H]3O[C@H]1C[C@H](N)[C@H](O)[C@H](C)O1 [Doxorubicin, reference compound] | – | – | – | 57.8 ± 4.05 | – | – | – |

Further lines, with some results ahead:

| IC50 [2, 5] [µM] | IC50 [3, 6] [µM] | SMILES | BEL-7402/ Inhibition (%) [1, 4] [%] | inhibition at 10 µM [1, 7] [%] | inhibition at 10 µM ([1]; Bel-7402, 72 h) [%] | IC50 [2, 8] [µM] | IC50 [3, 9] [µM] |
| --- | --- | --- | --- | --- | --- | --- | --- |
| 9 | 11.9 | COc1cc(NC(=O)c2cccs2)c2cc1Oc1ccc(cc1)C[C@H]1c3cc(c(OC)cc3CCN1C)Oc1c(OC)c(OC)cc3c1[C@H](C2)N(C)CC3 [Compound H-16] | 93.40 ± 4.70 | – | – | – | – |
| 12.2 | 10.8 | COc1cc(NC(=O)N2CCOCC2)c2cc1Oc1ccc(cc1)C[C@H]1c3cc(c(OC)cc3CCN1C)Oc1c(OC)c(OC)cc3c1[C@H](C2)N(C)CC3 [Compound H-26] | 89.60 ± 2.01 | – | – | – | – |
| 9.1 | 8.2 | COc1cc(NS(=O)(=O)c2ccc(Cl)cc2)c2cc1Oc1ccc(cc1)C[C@H]1c3cc(c(OC)cc3CCN1C)Oc1c(OC)c(OC)cc3c1[C@H](C2)N(C)CC3 [Compound H-24] | 90.01 ± 2.82 | – | – | – | – |
| 11 | 12.5 | COc1cc(NS(=O)(=O)c2ccc(C)cc2)c2cc1Oc1ccc(cc1)C[C@H]1c3cc(c(OC)cc3CCN1C)Oc1c(OC)c(OC)cc3c1[C@H](C2)N(C)CC3 [Compound H-20] | 93.91 ± 0.40 | – | – | – | – |
| 11.6 | 9.4 | COc1cc(NS(=O)(=O)c2ccc([N+](=O)[O-])cc2)c2cc1Oc1ccc(cc1)C[C@H]1c3cc(c(OC)cc3CCN1C)Oc1c(OC)c(OC)cc3c1[C@H](C2)N(C)CC3 [Compound H-19] | 92.70 ± 0.55 | – | – | – | – |
| 2.5 | 2.1 | COc1cc(NC(=O)c2ccco2)c2cc1Oc1ccc(cc1)C[C@H]1c3cc(c(OC)cc3CCN1C)Oc1c(OC)c(OC)cc3c1[C@H](C2)N(C)CC3 [Compound H-15] | 87.23 ± 2.26 | – | – | – | – |
